Reference: ChEMBL document CHEMBL4840320, “Taccachatrones A-G, Highly Oxidized Steroids from the Rhizomes of Tacca chantrierii and Their Cytotoxicity Assessment” (J Nat Prod, 2021)
Calls of active or inactive are those of the source. The rule behind the calls is not given here.

Tests used:
Assay type in all cases: functional, cell-based
HL-60 = experiment: Cytotoxicity against human HL-60 cells assessed as reduction in cell viability measured after 48 hrs by MTT assay; settings: for IC50: HL-60, 48 h
MCF7 = experiment: Cytotoxicity against human MCF7 cells assessed as reduction in cell viability measured after 48 hrs by MTT assay; settings: for IC50: MCF7, 48 h
A549 = experiment: Cytotoxicity against human A549 cells assessed as reduction in cell viability measured after 48 hrs by MTT assay; settings: for IC50: A549, 48 h
SW480 = experiment: Cytotoxicity against human SW480 cells assessed as reduction in cell viability measured after 48 hrs by MTT assay; settings: for IC50: SW480, 48 h

| SMILES | IC50 (HL-60) [µM] | IC50 (MCF7) [µM] | IC50 (A549) [µM] | IC50 (SW480) [µM] | Activity (HL-60) | Activity (MCF7) | Activity (A549) | Activity (SW480) |
| --- | --- | --- | --- | --- | --- | --- | --- | --- |
| CC(=O)O[C@@H]1[C@H]2[C@@H]3[C@@H](OC(C)=O)C(=O)[C@@]4(O)C[C@@H]5O[C@H]5[C@H](OC(=O)CC(C)C)[C@]4(C)[C@H]3C[C@H](OC(C)=O)[C@]2(C)[C@@H]2[C@@H]1[C@]1(C)C(=C[C@H]2C)OC(=O)C1(C)O (stereo partly specified) | > 10 | > 10 | 8.3 | > 10 |  |  |  |  |
| CC(=O)O[C@H]1C(=O)[C@@]2(C)[C@H]([C@H](OC(=O)c3ccccc3)[C@]3(O)C[C@H](OC(=O)[C@H](O)[C@@H](NC(=O)c4ccccc4)c4ccccc4)C(C)=C1C3(C)C)[C@]1(OC(C)=O)CO[C@@H]1C[C@@H]2O [PACLITAXEL] | < 0.008 | < 0.008 | < 0.008 | < 0.008 |  |  |  |  |
| CC(=O)O[C@H]1C[C@H]2[C@@H]([C@@H]3O[C@@H]3[C@@]3(O)C[C@@H]4O[C@@H]4[C@H](OC(C)=O)[C@]23C)[C@@H]2C[C@H]3[C@H](CO)CC(=O)[C@@H](C)[C@@H]3[C@@]12C |  |  |  |  | inactive | inactive | inactive | inactive |
| CC(=O)O[C@H]1C[C@H]2[C@@H](C(=O)[C@H](O)[C@@]3(O)C[C@@H]4O[C@@H]4[C@H](OC(C)=O)[C@]23C)[C@@H]2[C@H](O)[C@@H]3[C@H]([C@H](C)CC(=O)[C@H]3C)[C@]21C |  |  |  |  | inactive | inactive | inactive | inactive |
| CC(=O)O[C@@H]1[C@H]2[C@H]3[C@H]([C@H](O)[C@H](OC(C)=O)[C@]2(C)[C@H]2[C@H](C)[C@H](OC(C)=O)[C@@H]4OC(=O)C(C)(O)[C@]4(C)[C@H]12)[C@]1(C)[C@H](C[C@@H]2O[C@H]2[C@@H]1OC(C)=O)C(=O)[C@@H]3O (stereo partly specified) | > 10 | > 10 | 7.3 | > 10 |  |  |  |  |
| CC(=O)O[C@H]1[C@H]2[C@H]([C@@H]3[C@H]4OC(C)(O)[C@]5(C)[C@H]4[C@H]([C@H](C)C(=O)[C@H]5O)[C@@]3(C)[C@H]1OC(C)=O)[C@@H](OC(C)=O)C(=O)[C@H]1C[C@@H]3O[C@H]3[C@H](OC(C)=O)[C@]21C (stereo partly specified) | > 10 | > 10 | 7.5 | > 10 |  |  |  |  |
| CC(=O)O[C@H]1[C@H]2[C@H]([C@@H]3[C@@H](O)C4=C(C)C(=O)[C@@H](O)[C@@H](C)[C@@H]4[C@@]3(C)[C@H]1OC(C)=O)[C@@H](O)C(=O)[C@H]1C[C@@H]3O[C@@H]3[C@H](OC(C)=O)[C@]21C |  |  |  |  | inactive | inactive | inactive | inactive |
| CC(=O)O[C@H]1C[C@H]2[C@@H](C(=O)[C@H](O)[C@@]3(O)C[C@@H]4O[C@@H]4[C@H](OC(C)=O)[C@]23C)[C@@H]2C(=O)[C@H]3[C@H](C)[C@@H](O)C[C@@H](C)[C@@H]3[C@@]12C |  |  |  |  | inactive | inactive | inactive | inactive |
| CC(=O)O[C@H]1C[C@H]2[C@H]([C@@H]3[C@@H](O)[C@@H]4[C@H]([C@H](C)C=C5OC(=O)C(C)(O)[C@@]54C)[C@]31C)[C@@H](O)C(=O)[C@H]1C[C@@H]3O[C@H]3[C@H](OC(=O)CC(C)C)[C@@]12C (stereo partly specified) | 1.6 | 6.9 | 2.8 | > 10 |  |  |  |  |
